The values below come from BindingDB's records for patent US10174013 (Selvita S.A., 2019).

In general, pKd refers to the negative decadic logarithm of the Kd, by convention in mol/L. As a reminder, the pIC50 is the IC50 on a negative log10 scale, so that one unit is a factor of ten. A low value points to a high IC50.

pIC50, pKd: −log10 of the molar value.

Series [1] concerns the target Receptor-type tyrosine-protein kinase FLT3 (Homo sapiens, UniProt P36888). The series is described as follows: FLT3 Kinase assay. The method, then: (§1) Selected compounds were also tested for their binding properties against FLT3 kinase mutants using suitable in vitro assays (performed according to standard assays at DiscoveRx Corporation). The compounds show strong binding to the main oncogenic mutants of the FLT3 kinase.

Series [2] has as its target Receptor-type tyrosine-protein kinase FLT3 [D835Y] (Homo sapiens, UniProt P36888, D835Y). In words: FLT3 Kinase assay. The protocol: as §1
Series [3] concerns the target Receptor-type tyrosine-protein kinase FLT3 [D835H] (Homo sapiens, UniProt P36888, D835H). The series is described as follows: FLT3 Kinase assay. The method, then:
as §1

The target in series [4] is Potassium voltage-gated channel subfamily H member 2 (Homo sapiens, UniProt Q12809). The series is described as follows: Determination of a Possible Activity on hERG. Background: Block of hERG is tested as a sign of cardiac risk.
Sequence of Potassium voltage-gated channel subfamily H member 2 (Q12809 whole entry): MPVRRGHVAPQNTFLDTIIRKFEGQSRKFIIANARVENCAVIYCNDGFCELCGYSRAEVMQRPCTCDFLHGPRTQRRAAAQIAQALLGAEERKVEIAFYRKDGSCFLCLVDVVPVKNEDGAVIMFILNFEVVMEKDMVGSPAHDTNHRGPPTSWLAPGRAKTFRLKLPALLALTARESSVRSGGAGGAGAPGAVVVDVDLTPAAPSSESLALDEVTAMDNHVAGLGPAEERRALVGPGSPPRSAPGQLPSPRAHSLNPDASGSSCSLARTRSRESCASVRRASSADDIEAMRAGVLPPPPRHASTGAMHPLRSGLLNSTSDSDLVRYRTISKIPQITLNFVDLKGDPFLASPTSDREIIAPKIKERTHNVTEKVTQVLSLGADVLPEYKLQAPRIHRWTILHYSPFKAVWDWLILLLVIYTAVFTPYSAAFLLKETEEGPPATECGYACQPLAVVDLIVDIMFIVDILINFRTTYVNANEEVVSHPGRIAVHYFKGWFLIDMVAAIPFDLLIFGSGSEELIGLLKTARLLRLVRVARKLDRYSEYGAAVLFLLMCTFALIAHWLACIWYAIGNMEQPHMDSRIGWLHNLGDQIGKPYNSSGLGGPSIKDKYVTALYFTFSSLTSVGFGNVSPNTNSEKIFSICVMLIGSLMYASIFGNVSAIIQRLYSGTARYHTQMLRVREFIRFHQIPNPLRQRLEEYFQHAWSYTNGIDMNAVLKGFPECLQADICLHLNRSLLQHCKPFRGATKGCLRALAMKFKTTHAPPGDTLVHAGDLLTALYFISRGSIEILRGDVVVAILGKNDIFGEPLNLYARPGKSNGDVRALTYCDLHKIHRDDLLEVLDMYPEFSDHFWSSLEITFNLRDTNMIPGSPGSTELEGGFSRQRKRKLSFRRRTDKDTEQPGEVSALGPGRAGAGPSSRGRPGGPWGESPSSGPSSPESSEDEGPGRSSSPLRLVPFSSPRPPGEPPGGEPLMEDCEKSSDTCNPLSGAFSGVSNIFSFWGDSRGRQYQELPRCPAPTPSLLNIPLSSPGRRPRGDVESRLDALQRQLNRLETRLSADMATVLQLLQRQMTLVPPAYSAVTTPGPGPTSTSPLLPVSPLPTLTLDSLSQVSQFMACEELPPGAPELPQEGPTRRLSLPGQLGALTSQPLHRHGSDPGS
Description: In order to establish whether the compounds of the present invention act on hERG, the following experiment was carried out.The in vitro effects of the compounds indicated in Table 5 on the hERG potassium channel current (a surrogate for Iκr, the rapidly activating, delayed rectifier cardiac potassium current) expressed in mammalian cells were evaluated at room temperature using the QPatch HT (Sophion Bioscience A/S, Denmark), an automatic parallel patch clamp system. Each compound indicated in Table 5 was evaluated at 0.1, 1, 3, 10 and 30 μM with each concentration tested in a minimum of two cells (n≥2). The duration of exposure to each compound concentration was 3 minutes.

As for `CC(C)n1c(N2CCNCC2)nc2c([N+](=O)[O-])c(Br)c(Br)cc21` [US10174013, Example 2A], the pKd was 6.89 in series [1], 7.82 in series [2] and 7.55 in series [3].

The compound `CCn1c(N2CCNCC2)nc2c([N+](=O)[O-])c(Br)c(Br)cc21` [US10174013, Example 1A] showed a negative-log IC50 (pIC50) in series [4] of 4.69.
